Laboratory results published in US9498483B2, “2,3,5-trisubstituted thiophene compounds and uses thereof” (priority 2010, dated 2016).

Columns and labels:
[1] = system: HCV replicon I389luc-ubi-neo/NS3-3′/ET in ET (Huh-lucubineo-ET) cells; assay: Replicon assay (Biological Example 2), luciferase readout; format: cell-based; settings: Hepatitis C virus; ET cells, luciferase activity 48 hours after compound
Procedure, shortened: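 EC50 values come from Hill fits of % inhibition of replicon-driven firefly luciferase, relative to no-compound wells. Compounds were serially diluted (10 points, 3-fold, 0.1 nM–50 μM final, 0.5% DMSO) onto ET replicon cells and read after 48 h.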

HCV polymerase = target: T1, HCV polymerase (Hepatitis C virus genotype 1b, UniProt Q9WMX2); assay: Polymerase assay of Biological Example 1 (IC50 values of Table 3); format: biochemical; settings: IC50 values of Table 3, polymerase assay of Biological Example 1; read-out: NS5B-enzyme3
T1 construct: (His)6 (C); made in house; host or cells: XL-1 cells (E. coli, by own knowledge)

`CC(C)(C)C#Cc1cc(N2C(=O)C(CCO)CC[C@H]2C2CCCCC2)c(C(=O)O)s1` (stereo partly drawn) [Compound 342, 3-[(S)-6-Cyclohexyl-3-(2-hydroxy-ethyl)-2-oxo-piperidin-1-yl]-5-(3,3-dimethyl-but-1-ynyl)-thiophene-2-carboxylic acid] showed an IC50 [1] of no more than 0.1 µM and an IC50 (HCV polymerase) of 0.018 µM.
